Experimental data reported in patent US20150018384A1, “TREATMENT FOR HIGH CHOLESTEROL” (FibroGen, Inc., priority 2012, published 2015).
“Also recorded” adds a separate entry of the source.

How the values were obtained:
ApoE deficient mice [1] = test: High cholesterol mouse model, ApoE deficient mice, 2 weeks; format: in vivo; conditions: Compound 60 mg/kg three times a week for two weeks, n=10/group, FIG. 22
Text: (§1) Ten-week-old male apoE knockout mice (Jackson Laboratories, Bar Harbor, Me.) were fed a normal chow diet (0.02% cholesterol, 13.5% fat by weight; LabDiet). […] After 2 weeks of acclimatization, whole blood was collected for baseline measurement before administration of test reagents. […] The animals were sacrificed at end of study.
ApoE deficient mice as described in Example 10 were used to test the effect of various compounds on cholesterol levels. […] A statin compound (rosuvastatin) was also tested. Blood samples were collected at the end of the study and total cholesterol blood levels were tested. A group of 10 mice was sacrificed at the beginning of the study for a baseline total cholesterol measurement. […] Typically statins show mixed results in this model and are not very effective to reduce cholesterol in mice (Bea et al. 2003 Atherosclerosis 167:187-194).

[2] = tested on: genes involved in cholesterol biosynthesis in DIO mice liver; test: Microarray expression of cholesterol biosynthesis genes in liver of DIO mice; format: in vivo, mouse; conditions: 60 mg/kg three times a week, 4 weeks of dosing, relative to vehicle treated mice
Description: A number of PHI compounds were evaluated for their effect on the expression of cholesterol biosynthesis genes in mouse liver. […] Liver tissue was harvested and stored in RNALater (Life Technologies). Total RNA was isolated with Trizol (Life Technologies) and purified with RNEasy96 (Qiagen) according to the manufacturers' protocols. RNA concentration was measured by NanoDrop (Thermo), and quality was assessed by Bioanalyzer (Agilent).
Biotinylated microarray probe was prepared using the 3′IVT Express kit (Affymetrix) and hybridized to mouse 430A 2.0 arrays as recommended in the manufacturer's protocol. Arrays were stained, washed, and scanned using Affymetrix equipment and software. Three arrays were run for each treatment and time point, each representing the liver sample from one individual animal.
For microarray analysis, RNA from animals in each treatment group was pooled in pairs (n=3 pairs for 4 h vehicle, n=2 pairs for all other treatment groups, for a total of 13 arrays per compound study). This approach was used to improve the signal-to-noise ratio on microarrays. Biotinylated probe was prepared using the One-Cycle cDNA synthesis kit (Affymetrix) and hybridized to mouse 430A 2.0 arrays as recommended in the manufacturer's protocol. Arrays were stained, washed, and scanned using Affymetrix equipment and software.
Array quality was assessed with GeneChip Operating System and/or Command Console software (Affymetrix). CEL files were uploaded to GeneSpring 7.3.1 (Agilent) using GC-RMA baseline correction. Principal Components Analysis was used to identify and reject outlier arrays. Data are reported as fold-change compared to timepoint-matched vehicle controls from the same study. Values less than 1.0 indicate a reduction of RNA in the treated animal liver tissue.
Liver tissue was collected as described in Example 6 from DIO mice at the end of the study (4 weeks of dosing) described in Example 12. RNA isolation and microarray analysis were carried out as described in Example 6. The expression of 16 genes involved in cholesterol biosynthesis in mice treated with Compound B, Compound E, or Compound D, relative to that in the vehicle treated mice, is shown in Table 7.

cynomolgus monkeys = test: Cholesterol levels after repeated oral administration in monkey toxicity studies; format: in vivo, cynomolgus monkey; conditions: 28-Day study, daily oral dosing 1, 10 and 30 mg/kg, day 28
Description: During these studies monkeys were fasted prior to each blood collection. Plasma samples were then evaluated at pre-dose and at different time-points for levels of total cholesterol.

ApoE deficient mice [3] = test: Cholesterol reduction and erythrogenesis in ApoE deficient mice, 4 weeks; format: in vivo, mouse; conditions: orally 2, 20, 60 or 100 mg/kg three times a week for 4 weeks, n=8/group
Description: as §1
Total cholesterol and hemoglobin were measured weekly.

| Compound | total cholesterol levels at the end of the study compared to baseline (ApoE deficient mice [1]) | 3-hydroxy-3-methylglutaryl-Coenzyme A reductase (Hmgcr) expression [2] | 3-hydroxy-3-methylglutaryl-Coenzyme A synthase 1 (Hmgcs1) expression [2] | 7-dehydrocholesterol reductase (Dhcr7) expression [2] | NAD(P) dependent steroid dehydrogenase-like (Nsdhl) expression [2] | acetyl-Coenzyme A acetyltransferase 2 (Acat2) expression [2] | cytochrome P450, family 51 (Cyp51) expression [2] | farnesyl diphosphate farnesyl transferase 1 (Fdft1) expression [2] | farnesyl diphosphate synthetase (Fdps) expression [2] | isopentenyl-diphosphate delta isomerase (Idi1) expression [2] | lanosterol synthase (Lss) expression [2] | mevalonate (diphospho) decarboxylase (Mvd) expression [2] | mevalonate kinase (Mvk) expression [2] | phosphomevalonate kinase (Pmvk) expression [2] | squalene epoxidase (Sqle) expression [2] | sterol-C4-methyl oxidase-like (Sc4mol) expression [2] | sterol-C5-desaturase (fungal ERG3, delta-5-desaturase) homolog (S. cerevisae) (Sc5d) expression [2] | other results |
| --- | --- | --- | --- | --- | --- | --- | --- | --- | --- | --- | --- | --- | --- | --- | --- | --- | --- | --- |
| O=C(O)CNC(=O)c1nc(Cl)c2ccccc2c1O [Compound B, [(1-Chloro-4-hydroxy-isoquinoline-3-carbonyl)-amino]-acetic acid] | trend towards lower total cholesterol | 0.20 | 0.15 | 0.43 | 0.34 | 0.43 | 0.18 | 0.30 | 0.26 | 0.23 | 0.38 | 0.20 | 0.54 | 0.48 | 0.21 | 0.13 | 0.30 | – |
| COc1ccc(Oc2ccc3c(O)c(C(=O)NCC(=O)O)ncc3c2)cc1 [Compound D, {[4-Hydroxy-7-(4-methoxy-phenoxy)-isoquinoline-3-carbonyl]-amino}-acetic acid] | significantly decreased cholesterol levels | 0.47 | 0.42 | 0.76 | 1.02 | 0.72 | 0.55 | 0.44 | 0.92 | 0.67 | 0.70 | 0.43 | 0.77 | 1.14 | 0.89 | 0.38 | 0.42 | total cholesterol levels (cynomolgus monkeys): dose-dependent decrease in cholesterol levels; total cholesterol levels (cynomolgus monkeys; listed as compound D): dose dependent decrease in total cholesterol; hemoglobin compared to vehicle-treated (ApoE deficient mice [3]): did not significantly increase hemoglobin at any of the tested doses; also recorded: did not show a significant increase in hemoglobin at any of the doses tested; total cholesterol (% change from baseline) compared to vehicle-treated (ApoE deficient mice [3]): lower total cholesterol levels; also recorded: significant percent change in total cholesterol from baseline for the 20 mg/kg, 60 mg/kg, and 100 mg/kg doses |
